Experimental data published in paper PMC10254914, “Targeting Transcriptional CDKs 7, 8, and 9 with Anilinopyrimidine Derivatives as Anticancer Agents: Design, Synthesis, Biological Evaluation and In Silico Studies” (Molecules, 2023).

Columns and labels:
[1] = system: MCF7 (mammary gland breast cancer); test: MTT antiproliferative assay, MCF7; settings: Homo sapiens, MCF7, read-out: IC50 (µM) MCF7
Text: (§1) The cell lines mentioned above were used to determine the inhibitory effects of the compounds on cell growth using the MTT assay.

CDK9/CycT1 [2] = molecular target: T1, CDK9/CycT1 (Homo sapiens, UniProt P50750); test: Ligand efficiency and ligand lipophilic efficiency (DataWarrior); settings: for LE: LE=−RTlnIC50/N; for LLE: LLE=pIC50−clogP
Method: Ligand efficiency is an important parameter that is widely used in the development of drug measures to quantify the molecular properties, particularly the size and lipophilicity of small molecules, required to gain binding affinity to a drug target. The LE values of the synthesized compounds were measured using DataWarrior employing the following equation [48]: LE=−RTlnIC50/N where R is the universal gas constant, T is the absolute temperature in Kelvin, and N represents the number of heavy atoms, that is, non-hydrogen atoms in the drug.
LE is widely used for the selection and optimization of fragments, hits, and leads. […] Compounds with LE values higher than 0.3 are promising lead compounds.
In drug discovery and development, it is challenging to optimize the compound activity while maintaining a constant lipophilicity. As a result, LLE is an effective approach to control molecule lipophilicity to evade any “molecular obesity” through lead optimization. These were obtained via DataWarrior, according to the following equation [50]: LLE=pIC50−clogP
An acceptable lead compound should have an LLE value ≥5. As depicted in Table 6, 5j has acceptable LLE values. However, other compounds have values below the recommended limit.

CDK8 = CDK8 (Homo sapiens, UniProt P49336); test: In vitro CDK8 enzyme inhibition assay
Method: (§2) The CDK enzyme assay was performed as previously described [63].

CDK9/CycT1 [3] = molecular target: T1, CDK9/CycT1; test: In vitro CDK9/cyclin T1 enzyme inhibition assay
Method: as §2

[4] = system: HepG2 (hepatocellular carcinoma); test: MTT antiproliferative assay, HepG2; settings: Homo sapiens, HepG2, read-out: IC50 (µM) HepG2
Text: as §1

[5] = system: HeLa (cervical epithelioid carcinoma); test: MTT antiproliferative assay, HeLa; settings: Homo sapiens, read-out: IC50 (µM) HeLa
Text: as §1

[6] = system: HCT116 (colorectal carcinoma); test: MTT antiproliferative assay, HCT116; settings: Homo sapiens, HCT-116, read-out: IC50 (µM) HCT116
Text: as §1

CDK7/CycT1 = CDK7/CycT1 (Homo sapiens, UniProt P50613); test: In vitro CDK7 enzyme inhibition assay
Method: as §2

[7] = system: normal fibroblast cell line, WI-38; test: MTT cytotoxicity in normal fibroblasts WI-38; settings: Homo sapiens, WI-38, read-out: IC50 (µM) WI-38
Method: The MTT assay was performed to evaluate the in vitro antitumor activity of the synthesized 4-anilinoquinazolines according to a previously reported method [59, 60, 61, 62, 63].

[8] = system: HCT116, HepG2, HeLa, MCF7 cancer cell lines; test: MTT assay, ranges over the cancer cell line panel; settings: Homo sapiens, read-out: IC50 range over the tested cancer cell lines
Text: as §1

[9] = pIC 50, from the CDK9 IC50 of Table 6
[10] = IC50 (µM) CDK9/CycT1, dose-response curves, repeated in Table 6

Chain of CDK8 (P49336 whole entry): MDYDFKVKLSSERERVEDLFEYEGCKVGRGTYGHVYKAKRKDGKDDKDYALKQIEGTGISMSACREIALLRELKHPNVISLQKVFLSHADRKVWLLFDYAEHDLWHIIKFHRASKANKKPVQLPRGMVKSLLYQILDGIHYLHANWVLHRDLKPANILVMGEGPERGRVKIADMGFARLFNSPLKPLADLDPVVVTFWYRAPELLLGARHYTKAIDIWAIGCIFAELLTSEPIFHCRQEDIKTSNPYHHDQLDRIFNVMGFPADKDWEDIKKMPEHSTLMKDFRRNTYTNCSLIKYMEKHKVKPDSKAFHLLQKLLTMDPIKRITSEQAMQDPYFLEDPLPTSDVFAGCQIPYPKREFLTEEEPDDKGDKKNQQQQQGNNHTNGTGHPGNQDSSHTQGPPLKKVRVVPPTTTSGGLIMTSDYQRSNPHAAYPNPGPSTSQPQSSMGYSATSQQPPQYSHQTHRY
Chain of CDK8 (P24863 whole entry partner): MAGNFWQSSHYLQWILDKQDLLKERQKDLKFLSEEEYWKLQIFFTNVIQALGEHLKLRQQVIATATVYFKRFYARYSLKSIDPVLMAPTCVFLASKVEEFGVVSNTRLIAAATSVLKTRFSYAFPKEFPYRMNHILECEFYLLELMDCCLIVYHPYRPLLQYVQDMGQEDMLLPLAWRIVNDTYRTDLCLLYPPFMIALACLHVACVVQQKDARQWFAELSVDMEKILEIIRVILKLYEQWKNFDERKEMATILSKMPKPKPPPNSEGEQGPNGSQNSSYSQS
T1 sequence (P50750 whole entry): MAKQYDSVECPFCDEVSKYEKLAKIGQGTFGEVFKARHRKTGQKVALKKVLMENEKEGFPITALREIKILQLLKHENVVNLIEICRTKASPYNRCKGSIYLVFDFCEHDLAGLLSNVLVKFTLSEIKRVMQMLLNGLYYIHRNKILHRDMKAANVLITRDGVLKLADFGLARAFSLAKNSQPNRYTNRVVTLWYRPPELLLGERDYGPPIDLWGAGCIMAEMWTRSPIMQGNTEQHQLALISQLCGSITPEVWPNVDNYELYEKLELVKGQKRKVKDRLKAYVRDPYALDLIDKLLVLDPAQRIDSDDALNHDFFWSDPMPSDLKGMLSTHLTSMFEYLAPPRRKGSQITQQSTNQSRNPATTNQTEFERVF
T1 sequence (O60563 whole entry partner): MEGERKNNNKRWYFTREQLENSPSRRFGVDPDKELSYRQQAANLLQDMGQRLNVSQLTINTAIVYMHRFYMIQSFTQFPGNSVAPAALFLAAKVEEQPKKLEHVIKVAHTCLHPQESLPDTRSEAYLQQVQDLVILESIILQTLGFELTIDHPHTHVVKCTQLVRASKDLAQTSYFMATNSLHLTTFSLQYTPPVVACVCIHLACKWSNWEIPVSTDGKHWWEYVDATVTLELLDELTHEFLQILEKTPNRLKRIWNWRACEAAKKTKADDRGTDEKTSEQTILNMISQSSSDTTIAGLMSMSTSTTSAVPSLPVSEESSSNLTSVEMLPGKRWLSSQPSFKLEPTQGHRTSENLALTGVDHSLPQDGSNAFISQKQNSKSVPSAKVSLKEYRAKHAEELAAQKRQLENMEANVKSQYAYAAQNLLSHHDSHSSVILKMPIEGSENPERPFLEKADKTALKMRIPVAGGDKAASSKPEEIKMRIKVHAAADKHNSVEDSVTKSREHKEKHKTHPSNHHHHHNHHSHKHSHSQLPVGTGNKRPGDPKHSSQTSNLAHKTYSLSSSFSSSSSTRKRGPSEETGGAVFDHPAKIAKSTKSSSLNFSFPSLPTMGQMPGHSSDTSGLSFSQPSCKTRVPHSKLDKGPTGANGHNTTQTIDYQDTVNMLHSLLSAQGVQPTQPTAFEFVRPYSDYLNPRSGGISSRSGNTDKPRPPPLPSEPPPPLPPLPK
Chain of CDK7/CycT1 (P50613 whole entry): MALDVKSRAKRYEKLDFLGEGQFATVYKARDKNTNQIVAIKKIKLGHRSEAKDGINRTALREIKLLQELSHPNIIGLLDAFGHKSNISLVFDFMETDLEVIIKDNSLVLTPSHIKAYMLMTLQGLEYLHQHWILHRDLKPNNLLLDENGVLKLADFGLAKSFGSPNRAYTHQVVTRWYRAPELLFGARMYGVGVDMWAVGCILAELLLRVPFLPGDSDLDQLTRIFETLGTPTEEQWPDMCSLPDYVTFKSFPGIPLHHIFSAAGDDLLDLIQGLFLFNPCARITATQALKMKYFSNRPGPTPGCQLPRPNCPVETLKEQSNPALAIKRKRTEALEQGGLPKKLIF
Chain of CDK7/CycT1 (P51946 whole entry partner): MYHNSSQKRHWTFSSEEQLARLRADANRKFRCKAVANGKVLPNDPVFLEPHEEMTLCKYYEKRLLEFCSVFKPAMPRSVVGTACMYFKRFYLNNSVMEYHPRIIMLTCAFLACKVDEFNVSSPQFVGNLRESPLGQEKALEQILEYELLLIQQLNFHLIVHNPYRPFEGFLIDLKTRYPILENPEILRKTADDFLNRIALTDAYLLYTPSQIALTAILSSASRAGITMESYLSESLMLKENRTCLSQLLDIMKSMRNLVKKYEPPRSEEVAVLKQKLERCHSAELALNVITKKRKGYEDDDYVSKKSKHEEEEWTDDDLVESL

SMILES | melting point | IC50 [1] | LE (CDK9/CycT1 [2]) | LLE (CDK9/CycT1 [2]) | IC50 (CDK8) | IC50 (CDK9/CycT1 [3]; [9]) | IC50 [4] | IC50 [5] | IC50 [6] | IC50 (CDK7/CycT1) | IC50 [7] | IC50 (CDK9/CycT1 [3]; [10]) | IC50 [8]
NS(=O)(=O)c1cccc(Nc2nccc(-c3cnccn3)n2)c1 [Compound 5j, 3-((4-(Pyrazin-2-yl)pyrimidin-2-yl)amino)benzenesulfonamide] | 288 to 290 °C | 71.3 ± 4 µM | 0.3867 | 5.5526 | 4.05 µM | 0.111 µM | 85.3 ± 4.3 µM | 92.4 ± 4.8 µM | > 100 µM | 1.46 µM | 60.5 ± 3.7 µM | – | –
N#Cc1cnc(Nc2cccc(S(N)(=O)=O)c2)nc1-c1ccc(Cl)cc1 [Compound 5k, 3-((4-(4-Chlorophenyl)-5-cyanopyrimidin-2-yl)amino)benzenesulfonamide] | – | 39.5 ± 2.3 µM | 0.3384 | 3.4615 | 3.66 µM | – | 48.6 ± 2.7 µM | 66.2 ± 3.4 µM | 75.3 ± 4.3 µM | 1.73 µM | 27.1 ± 2.2 µM | 0.613 µM | –
NS(=O)(=O)c1cccc(Nc2nccc(-c3ccncc3)n2)c1 [Compound 5i, 3-((4-(Pyridin-4-yl)pyrimidin-2-yl)amino)benzenesulfonamide] | – | 32.2 ± 2.1 µM | 0.3868 | 4.9754 | 4.37 µM | 1.67 µM | 52.6 ± 2.9 µM | 63.7 ± 3.2 µM | 72.2 ± 4 µM | 4.33 µM | 19.7 ± 1.3 µM | 1.67 µM | –
N#Cc1cnc(Nc2cccc(S(N)(=O)=O)c2)nc1-c1ccc(F)cc1 [Compound 5l, 3-((5-Cyano-4-(4-fluorophenyl)pyrimidin-2-yl)amino)benzenesulfonamide] | – | 46 ± 2.6 µM | 0.3394 | 3.9856 | 1.65 µM | – | 56.2 ± 3.2 µM | 74.9 ± 3.7 µM | 83.7 ± 4.6 µM | 1.92 µM | 39.3 ± 2.7 µM | 0.967 µM | –
NS(=O)(=O)c1cccc(Nc2nccc(-c3ccccc3)n2)c1 [Compound 5a, 3-((4-Phenylpyrimidin-2-yl)amino)benzenesulfonamide] | – | 3.84 ± 0.2 µM | 0.3869 | 3.9758 | 2.3 µM | – | 7.84 ± 0.6 µM | 11.5 ± 0.9 µM | 25.9 ± 1.8 µM | 0.875 µM | 37.9 ± 2.5 µM | 0.449 µM | 1 to 10 µM
COc1cccc2c1C(=O)c1c(O)c3c(c(O)c1C2=O)C[C@@](O)(C(=O)CO)C[C@@H]3O[C@H]1C[C@H](N)[C@H](O)[C@H](C)O1 [DOX, Doxorubicin, reference compound] | – | – | – | – | – | – | 4.5 ± 0.2 µM | – | – | – | – | – | –
NS(=O)(=O)c1cccc(Nc2nccc(-c3ccc(F)cc3)n2)c1 [Compound 5f, 3-((4-(4-Fluorophenyl)pyrimidin-2-yl)amino)benzenesulfonamide] | – | 57.2 ± 3.2 µM | 0.3694 | 3.8517 | 1.53 µM | 0.2 µM | 46.8 ± 2.6 µM | 51.4 ± 2.8 µM | 65.9 ± 3.7 µM | 0.479 µM | 26.9 ± 2 µM | – | –
COc1ccc(-c2ccnc(Nc3cccc(S(N)(=O)=O)c3)n2)cc1 [Compound 5c, 3-((4-(4-Methoxyphenyl)pyrimidin-2-yl)amino)benzenesulfonamide] | – | 16.1 ± 1.3 µM | 0.3538 | 4.0076 | 6.3 µM | 0.246 µM | 24.4 ± 1.8 µM | 29.8 ± 2.1 µM | 38.1 ± 2.4 µM | 0.966 µM | 56.3 ± 3.4 µM | – | –
Nc1nccc(-c2ccc(OC(F)(F)F)cc2)n1 [Compound 3e, 4-(4-(trifluoromethoxy)phenyl)pyrimidin-2-amine] | – | 26.3 ± 1.8 µM | – | – | – | – | 39.1 ± 2.3 µM | 47 ± 2.6 µM | 61.3 ± 3.5 µM | – | 74.6 ± 4.2 µM | – | –
N#Cc1cnc(Nc2ccccc2)nc1-c1ccccc1 [Compound 5m, 4-Phenyl-2-(phenylamino)pyrimidine-5-carbonitrile] | – | 76.3 ± 4.3 µM | 0.4289 | 2.9828 | 1.43 µM | – | 88.4 ± 4.6 µM | 9.83 ± 0.7 µM | 23.6 ± 1.5 µM | 0.703 µM | 73.3 ± 4.1 µM | 1.96 µM | –
NS(=O)(=O)c1cccc(Nc2nccc(-c3ccccn3)n2)c1 [Compound 5h, 3-((4-(Pyridin-2-yl)pyrimidin-2-yl)amino)benzenesulfonamide] | – | 14.3 ± 1.2 µM | 0.3868 | 4.8844 | 6.56 µM | 0.191 µM | 28 ± 2.1 µM | 25.4 ± 1.9 µM | 35.1 ± 2.3 µM | 3.18 µM | > 100 µM | – | –
Nc1nccc(-c2ccc(Cl)cc2)n1 [Compound 3b, 4-(4-chlorophenyl)pyrimidin-2-amine] | – | 10.2 ± 0.9 µM | – | – | – | – | 18.9 ± 1.3 µM | 15.2 ± 1.2 µM | 29.1 ± 2 µM | – | 93.9 ± 5.1 µM | – | –
NS(=O)(=O)c1cccc(Nc2nccc(-c3ccc([N+](=O)[O-])cc3)n2)c1 [Compound 5g, 3-((4-(4-Nitrophenyl)pyrimidin-2-yl)amino)benzenesulfonamide] | 265 to 267 °C | 68.2 ± 3.9 µM | 0.3393 | 4.8413 | 4.19 µM | – | 84.6 ± 4.3 µM | 42.6 ± 2.4 µM | 57.5 ± 3.4 µM | 1.34 µM | 31.1 ± 2.3 µM | 1.74 µM | –
NS(=O)(=O)c1cccc(Nc2nccc(-c3ccc(OC(F)(F)F)cc3)n2)c1 [Compound 5e, 3-((4-(4-(Trifluoromethoxy)phenyl)pyrimidin-2-yl)amino)benzenesulfonamide] | 252 to 254 °C | 74 ± 4.2 µM | 0.3129 | 2.7773 | 1.89 µM | 0.149 µM | 81.3 ± 4.1 µM | 38.8 ± 2.5 µM | 56.6 ± 3.1 µM | 1.1 µM | 64.3 ± 3.9 µM | – | –
N#Cc1cnc(N)nc1-c1ccc(Cl)cc1 [Compound 3g, 2-amino-4-(4-chlorophenyl)pyrimidine-5-carbonitrile] | – | 52.9 ± 2.9 µM | – | – | – | – | 44.2 ± 2.5 µM | 34.7 ± 2.1 µM | 45 ± 2.6 µM | – | 82.7 ± 4.8 µM | – | –
NS(=O)(=O)c1cccc(Nc2nccc(-c3ccc(C(F)(F)F)cc3)n2)c1 [Compound 5d, 3-((4-(4-(Trifluoromethyl)phenyl)pyrimidin-2-yl)amino)benzenesulfonamide] | 150 to 152 °C | 8.72 ± 0.7 µM | 0.3254 | 3.0453 | 0.716 µM | 0.0729 µM | 11.7 ± 1 µM | 22.2 ± 1.7 µM | 33.8 ± 2.2 µM | 0.661 µM | 51.9 ± 3.1 µM | – | 1 to 10 µM
NS(=O)(=O)c1cccc(Nc2nccc(-c3ccc(Cl)cc3)n2)c1 [Compound 5b, 3-((4-(4-Chlorophenyl)pyrimidin-2-yl)amino)benzenesulfonamide] | – | 43.7 ± 2.5 µM | 0.3683 | 3.3262 | 3.81 µM | 0.0589 µM | 40.9 ± 2.4 µM | 36.3 ± 2.3 µM | 53.8 ± 2.9 µM | 3.01 µM | 78.5 ± 4.4 µM | – | –
COc1ccc(-c2ccnc(N)n2)cc1 [Compound 3c, 4-(4-methoxyphenyl)pyrimidin-2-amine] | – | 62.1 ± 3.6 µM | – | – | – | – | 74.4 ± 3.7 µM | 86.2 ± 4.3 µM | > 100 µM | – | 58.1 ± 3.6 µM | – | –
Nc1nccc(-c2ccc(C(F)(F)F)cc2)n1 [Compound 3d, 4-(4-(trifluoromethyl)phenyl)pyrimidin-2-amine] | – | 87.1 ± 4.6 µM | – | – | – | – | 91.7 ± 4.9 µM | > 100 µM | > 100 µM | – | > 100 µM | – | –
N#Cc1cnc(N)nc1-c1ccc(F)cc1 [Compound 3h, 2-amino-4-(4-fluorophenyl)pyrimidine-5-carbonitrile] | 214 to 216 °C | 59 ± 3.4 µM | – | – | – | – | 67 ± 3.5 µM | 82.5 ± 4.1 µM | 94.2 ± 5.3 µM | – | > 100 µM | – | –
N#Cc1cnc(N)nc1-c1ccccc1 [Compound 3f, 2-amino-4-phenylpyrimidine-5-carbonitrile] | – | 6.08 ± 0.4 µM | – | – | – | – | 8.18 ± 0.8 µM | 18.2 ± 1.4 µM | 30.5 ± 2.1 µM | – | 55.2 ± 3.2 µM | – | –
